# Experimental data as given in publication PMC9693223 (Molecules, 2022).
# Like-named read-outs stand apart in the source and are kept apart here.
# B1: TcrNT2 (Trypanosoma cruzi strain CL Brener) (protein)
# chain: MGLGFEFWGEAYSYAAAIMCGLSMLLPINAIFSAPLYIMNYYQYVMHDPNAVAKHKNFWDNALTYYSMLIMLVALIVEPLTLSEAFRRIPIRLRMLSALSMFWLEIIILMSVPAAGSTEAGAISAIVCASFSSALGKSVFESTAYGLFGVFPSRFNTALMGGVGVAGALASILQLIVKASLPQDYSGIRTQSKIYYGLMAGIHGITFIMVVGLHWVPFAQRYINALSGGTSSPASNNPDQAAESETEAASKANEKSAPKATNGGDDNADSGRLVNTNVIFVLKCVYPMLSACGFNFFITLFLFPTIVVSVDPDDYWYGTVAVCIFNVCDVCGRFSPSLKCLWPPRWVVLVGSFSRVVFVPLLILASYHYIPSHAYNYVMMVIFGLSNGYIGALAITLGPLTRNLETSGQRFVAGTMFGISILIGGTIGSALSILVQTLRG
# Columns and labels:
# [1] = test system: L. mexicana Cas9 promastigotes; test: Alamar blue drug sensitivity assay, L. mexicana Cas9 promastigotes; assay type: cell-based, Leishmania mexicana; conditions: 72 h + 48 h resazurin, at least 3 independent determinations
# Excerpt: (§1) We used L. mexicana promastigotes of the Cas9 strain developed by Beneke at al. to generate the ΔNT1 strain, and from there the Cas9^ΔNT1+TcrNT2 (see below); The original Cas9 strain was generously donated by Prof. Eva Gluenz (University of Bern, Switzerland). All strains in standard HOMEM (GIBCO, Life Technologies, Paisley, UK) supplemented with 10% heat-inactivated fetal bovine serum (FBS; PAA Laboratories, Linz, Austria) and 1% of a penicillin–streptomycin solution (10,000 U mL^−1 each; Life Technologies) at 25 °C, as described.
# (§2) The Alamar blue assay (resazurin sodium salt) was used to determine the drug sensitivity of the L. mexicana promastigotes in vitro. The assay is based on the reduction of resazurin sodium salt (blue and non-fluorescent) to resorufin (pink color and fluorescent) by live cells. HOMEM medium with 10% FBS (100 μL) was added to all wells of a white 96-well plate apart from the first well. 200 μL of a known concentration of test compounds was diluted in HOMEM medium and placed in the first well. Compounds were tested in one plate and every compound was diluted over two rows (23 concentrations), leaving the last well of every dilution as a negative control having 100 μL HOMEM medium. Next, 100 μL of L. mexicana culture at a density of 2 × 10^6 cells mL^−1 was added into every well in the plate and incubated for 72 h at a temperature of 25 °C after which resazurin sodium salt (Sigma) (20 μL of a solution of 12.5 mg in 100 mL PBS) was added and the plate was incubated under the same conditions for a further 48 h. Fluorescence was measured in a FLUOstar OPTIMA plate reader (BMG Labtech, Germany), at a wavelength of 544 nm for excitation and 620 nm for emission. The EC50 values and fluorescence data were determined and plotted by the GraphPad Prism 8 Software using an equation for a sigmoid curve with variable slope. Pentamidine was used as positive control and every experiment was performed 3–4 times independently.
# [2] = test system: L. mexicana Cas9^ΔNT1 promastigotes; test: Alamar blue drug sensitivity assay, L. mexicana Cas9^ΔNT1 promastigotes; assay type: cell-based, Leishmania mexicana; conditions: L. mexicana Cas9^ΔNT1 promastigotes, 72 h + 48 h resazurin
# Excerpt: as §1, §2
# [3] = test system: L. mexicana Cas9^ΔNT1+TcrNT2 promastigotes; test: Alamar blue drug sensitivity assay, L. mexicana Cas9^ΔNT1+TcrNT2 promastigotes; assay type: cell-based, Leishmania mexicana; conditions: L. mexicana Cas9^ΔNT1+TcrNT2 promastigotes, 72 h + 48 h resazurin
# Excerpt: as §1, §2
# [4] = test system: T. cruzi epimastigotes (CL Brener strain); test: In vitro inhibition of proliferation of T. cruzi epimastigotes; assay type: cell-based, Trypanosoma cruzi; conditions: cell densities at the 5th day of proliferation, four independent experiments
# Procedure: Trypomastigotes were obtained by infecting CHO-K1 cells. CHO-K1 cells were cultivated in RPMI-1640 medium supplemented with 10% heat-inactivated fetal calf serum (FCS), 0.15% (w/v) […], 100 µg mL^−1 penicillin and 130 µg mL^−1 streptomycin and incubated at 37 °C in a humidified atmosphere containing 5% CO2. CHO-K1 cells were initially incubated with metacyclic trypomastigotes obtained by in vitro differentiation of epimastigotes as previously described (multiplicity of infection: 50 parasites per cell) for 4 h. After washing out the non-internalized parasites, the cells were incubated overnight in RPMI medium supplemented with 10% FCS at 37 °C and then maintained at 33 °C in a humidified atmosphere containing 5% CO2 as previously reported. Infected cells were maintained at 33 °C in the presence of 10% FCS. Infected cell-derived trypomastigotes started to burst into the culture medium at the 5th day post-infection. Trypomastigotes collected at day 5 or 6 post infection were used for the viability assays.
# The density of exponentially proliferating epimastigotes for each assay was adjusted to 2.0 × 10^6 parasites mL^−1, transferred into 96-well plates (200 μL/well) and incubated with different concentrations of the compounds 5-F-2′-deoxyuridine, 5-F-uracil, 5-F-uridine or benznidazole. A combination of 60 μM rotenone and 0.5 μM antimycin (RA) was used as a positive control for proliferation inhibition (positive control), as previously described. […] The epimastigote proliferation was measured as previously reported, by reading the optical density (OD) at 620 nm every 24 h for 9 days (which collects readings through the exponential and stationary phases). […] The half-maximal inhibitory concentrations (IC50) were determined during the exponential growth phase (fifth day) by adjusting a sigmoidal dose-response function to experimentally obtained data using GraphPad Prism 8. The compounds were assessed in quadruplicate in each experiment, and the results correspond to four independent experiments.
# TcrNT2 = TcrNT2 (Trypanosoma cruzi, UniProt Q4DHG0); conditions: ref Campagnaro et al. [30], cited from earlier work
# NT1 transport activity = test system: NT1 transport activity; set-up: method as in PMID 28453984; conditions: NT1 transport activity in L. mexicana; ref [36]; cited from earlier work
# [5] = test system: L. mexicana Cas9 promastigotes; set-up: method as in de Almeida Fiuza et al. [41]; conditions: starred values, ref de Almeida Fiuza et al. [41], read-out: EC50 (µM) AVG ± SEM, Cas9; cited from earlier work
# [6] = test system: L. mexicana Cas9^ΔNT1 promastigotes; set-up: method as in de Almeida Fiuza et al. [41]; conditions: starred values, ref de Almeida Fiuza et al. [41], cited from earlier work; for RF vs. Cas9 (resistance factor): EC50 Cas9^ΔNT1 relative to Cas9; for EC50: L. mexicana Cas9^ΔNT1 promastigotes, read-out: EC50 (µM) AVG ± SEM, L. mexicana Cas9^ΔNT1
# [7] = test system: L. mexicana Cas9^ΔNT1+TcrNT2 promastigotes; set-up: method as in de Almeida Fiuza et al. [41]; conditions: starred values, ref de Almeida Fiuza et al. [41], cited from earlier work; for EC50: L. mexicana Cas9^ΔNT1+TcrNT2 promastigotes, read-out: EC50 (µM) AVG ± SEM, L. mexicana Cas9^ΔNT1+TcrNT2; for RF vs. ΔNT1 (resistance factor): Cas9^ΔNT1+TcrNT2 in comparison to Cas9^ΔNT1
# [8] = test system: intracellular T. cruzi amastigotes; conditions: intracellular amastigotes; ref [16]; read-out: EC50 against intracellular T. cruzi amastigotes; cited from earlier work
# [9] = substrate: Cc1cn([C@H]2C[C@H](O)[C@@H](CO)O2)c(=O)[nH]c1=O; test: Transport of [^3H]-thymidine by TcrNT2 expressed in L. mexicana Cas9^ΔNT1 (Km, inhibition); assay type: cell-based, Trypanosoma cruzi; conditions: other: TcrNT2 in L. mexicana Cas9^ΔNT1, […] [^3H]-thymidine, 5 min, n = 3
# Procedure: These values can be used to calculate the Gibbs free energy of interaction ΔG°, but these experiments cannot distinguish between the test compound being transported or merely binding to the transporter and inhibiting the transit of the [^3H]-thymidine.
# Transport assays were conducted with radiolabeled nucleosides [methyl-^3H]-thymidine (20 Ci/mmol; PerkinElmer (Waltham, MA, USA)) and [2,8-^3H]-adenosine (40 Ci/mmol; American Radiolabeled Chemicals (ARC, St-Louis, MO, USA)). Cells were harvested from mid-log phase cultures by centrifugation and washed into an assay buffer (AB) as described, at a density of 1 × 10^8 cells mL^−1. Transport assays were then performed exactly as described previously, using an oil-stop protocol. […]
# Michaelis-Menten constants (Km) were calculated by plotting transport rates of [^3H]-substrate against the concentration, using the Michaelis-Menten equation V0 = Vmax([substrate]/([substrate] + Km)) and non-linear regression in GraphPad Prism 8. Inhibition constants (Ki) were calculated using the Cheng-Prusoff equation: Ki = IC50/(1 + (L/Km)), where L represents the radiolabel concentration. […]
Molecule,EC50 [5] [µM],RF vs. Cas9 (resistance factor) [6],EC50 [6] [µM],EC50 [7] [µM],RF vs. ΔNT1 (resistance factor) [7],further results
O=c1[nH]cc(F)c(=O)[nH]1 [5-F-uracil],,,,,,"EC50 (µM) AVG ± SEM, Cas9 [1]: poorly active; EC50 (µM) AVG ± SEM, L. mexicana Cas9^ΔNT1 [2]: poorly active; EC50 (µM) AVG ± SEM, L. mexicana Cas9^ΔNT1+TcrNT2 [3]: poorly active; IC50 [4]: 25.9 ± 0.01 µM"
O=c1[nH]c(=O)n([C@@H]2O[C@H](CO)[C@@H](O)[C@H]2O)cc1F [5-F-uridine],,,,,,"EC50 ([1]; read-out: EC50 (µM) AVG ± SEM, Cas9): > 500 µM; EC50 ([2]; read-out: EC50 (µM) AVG ± SEM, L. mexicana Cas9^ΔNT1): > 500 µM; EC50 ([3]; read-out: EC50 (µM) AVG ± SEM, L. mexicana Cas9^ΔNT1+TcrNT2): > 500 µM; IC50 [4]: > 500 µM"
Nc1ncnc2c1ncn2[C@@H]1O[C@H](CO)[C@@H](O)[C@H]1O [Adenosine],,,,,,"Ki (TcrNT2; earlier characterization, TcrNT2 expressed in T. brucei, read-out: Ki on thymidine transport by TcrNT2): 1.56 ± 0.06 mM; ΔG° (Gibbs free energy of interaction) (TcrNT2; from cited Ki): -15.8 kJ/mol; Km (NT1 transport activity): 810 ± 160 nM"
"Nc1ncnc2c1c(-c1ccc(Cl)c(Cl)c1)cn2[C@@H]1O[C@H](CO)[C@@H](O)[C@H]1O [FH3147, 7-(3,4-dichlorophenyl)-tubercidin]",8.41 ± 1.61,>11.8,> 100,13.7 ± 1.25,,EC50 [8]: 190 nM
Nc1ncnc2c1c(Cl)cn2[C@@H]1O[C@H](CO)[C@@H](O)[C@H]1O [FH3169],0.24 ± 0.055,8.43,2 ± 0.19,0.32 ± 0.05,6.26,
Nc1ncnc2c1c(-c1ccc(Cl)c(F)c1)cn2[C@@H]1O[C@H](CO)[C@@H](O)[C@H]1O [FH10714],> 500,,> 500,> 500,,
Nc1ncnc2c1c(-c1ccccc1)cn2[C@@H]1O[C@H](CO)[C@@H](O)[C@H]1O [TH1004],37 ± 0.23,3.7,138 ± 10,101 ± 0.5,1.37,
Nc1ncnc2c1c(-c1ccc(Cl)cc1)cn2[C@@H]1O[C@H](CO)[C@@H](O)[C@H]1O [TH1012],52.5 ± 0.3,5.3,280 ± 18,96.6 ± 0.3,2.90,
B1,,,,,,Km [9]: 0.263 µM; Km ([9]; […]): 0.26 ± 0.05 µM
